Data taken from BigSolDB 2.1.

Cc1ccc(N)c([N+](=O)[O-])c1
Conditions | solubility (mole fraction)
in 1,2-dichloroethane, 278.15 K | 0.0289
in 1,2-dichloroethane, 280.65 K | 0.0326
in 1,2-dichloroethane, 283.15 K | 0.0355
in 1,2-dichloroethane, 285.65 K | 0.0397
in 1,2-dichloroethane, 288.15 K | 0.0432
in 1,2-dichloroethane, 290.65 K | 0.0468
in 1,2-dichloroethane, 293.15 K | 0.0506
in 1,2-dichloroethane, 295.65 K | 0.0548
in 1,2-dichloroethane, 298.15 K | 0.0594
in 1,2-dichloroethane, 300.65 K | 0.0642
in 1,2-dichloroethane, 303.15 K | 0.0692
in 1,2-dichloroethane, 305.65 K | 0.0747
in 1,2-dichloroethane, 308.15 K | 0.0806
in 1,2-dichloroethane, 310.65 K | 0.087
in 1,2-dichloroethane, 313.15 K | 0.0937
in 1,2-dichloroethane, 315.65 K | 0.101
in 1,2-dichloroethane, 318.15 K | 0.109
in 1,4-dioxane, 283.15 K | 0.0404
in 1,4-dioxane, 285.65 K | 0.0452
in 1,4-dioxane, 288.15 K | 0.0507
in 1,4-dioxane, 290.65 K | 0.0568
in 1,4-dioxane, 293.15 K | 0.0637
in 1,4-dioxane, 295.65 K | 0.0712
in 1,4-dioxane, 298.15 K | 0.0794
in 1,4-dioxane, 300.65 K | 0.0883
in 1,4-dioxane, 303.15 K | 0.0986
in 1,4-dioxane, 305.65 K | 0.11
in 1,4-dioxane, 308.15 K | 0.121
in 1,4-dioxane, 310.65 K | 0.134
in 1,4-dioxane, 313.15 K | 0.149
in 2-butanone, 278.15 K | 0.12
in 2-butanone, 280.65 K | 0.128
in 2-butanone, 283.15 K | 0.136
in 2-butanone, 285.65 K | 0.144
in 2-butanone, 288.15 K | 0.153
in 2-butanone, 290.65 K | 0.162
in 2-butanone, 293.15 K | 0.171
in 2-butanone, 295.65 K | 0.181
in 2-butanone, 298.15 K | 0.191
in 2-butanone, 300.65 K | 0.202
in 2-butanone, 303.15 K | 0.213
in 2-butanone, 305.65 K | 0.224
in 2-butanone, 308.15 K | 0.236
in 2-butanone, 310.65 K | 0.249
in 2-butanone, 313.15 K | 0.261
in DMF, 278.15 K | 0.0984
in DMF, 280.65 K | 0.105
in DMF, 283.15 K | 0.112
in DMF, 285.65 K | 0.122
in DMF, 288.15 K | 0.131
in DMF, 290.65 K | 0.14
in DMF, 293.15 K | 0.15
in DMF, 295.65 K | 0.161
in DMF, 298.15 K | 0.171
in DMF, 300.65 K | 0.182
in DMF, 303.15 K | 0.194
in DMF, 305.65 K | 0.206
in DMF, 308.15 K | 0.219
in DMF, 310.65 K | 0.232
in DMF, 313.15 K | 0.247
in acetonitrile, 278.15 K | 0.0274
in acetonitrile, 280.65 K | 0.0302
in acetonitrile, 283.15 K | 0.0334
in acetonitrile, 285.65 K | 0.0369
in acetonitrile, 288.15 K | 0.0406
in acetonitrile, 290.65 K | 0.0447
in acetonitrile, 293.15 K | 0.0493
in acetonitrile, 295.65 K | 0.0543
in acetonitrile, 298.15 K | 0.0602
in acetonitrile, 300.65 K | 0.0657
in acetonitrile, 303.15 K | 0.0721
in acetonitrile, 305.65 K | 0.0794
in acetonitrile, 308.15 K | 0.0872
in acetonitrile, 310.65 K | 0.0955
in acetonitrile, 313.15 K | 0.105
in chlorobenzene, 278.15 K | 0.016
in chlorobenzene, 280.65 K | 0.0174
in chlorobenzene, 283.15 K | 0.0194
in chlorobenzene, 285.65 K | 0.0216
in chlorobenzene, 288.15 K | 0.0239
in chlorobenzene, 290.65 K | 0.0262
in chlorobenzene, 293.15 K | 0.0288
in chlorobenzene, 295.65 K | 0.0316
in chlorobenzene, 298.15 K | 0.0349
in chlorobenzene, 300.65 K | 0.0383
in chlorobenzene, 303.15 K | 0.0421
in chlorobenzene, 305.65 K | 0.0463
in chlorobenzene, 308.15 K | 0.0507
in chlorobenzene, 310.65 K | 0.0556
in chlorobenzene, 313.15 K | 0.0611
in chlorobenzene, 315.65 K | 0.0671
in chlorobenzene, 318.15 K | 0.0738
in ethanol, 278.15 K | 0.00983
in ethanol, 280.65 K | 0.0107
in ethanol, 283.15 K | 0.0118
in ethanol, 285.65 K | 0.0128
in ethanol, 288.15 K | 0.0139
in ethanol, 290.65 K | 0.0152
in ethanol, 293.15 K | 0.0165
in ethanol, 295.65 K | 0.0179
in ethanol, 298.15 K | 0.0194
in ethanol, 300.65 K | 0.021
in ethanol, 303.15 K | 0.0228
in ethanol, 305.65 K | 0.0246
in ethanol, 308.15 K | 0.0266
in ethanol, 310.65 K | 0.0289
in ethanol, 313.15 K | 0.0312
in ethyl acetate, 278.15 K | 0.076
in ethyl acetate, 280.65 K | 0.0816
in ethyl acetate, 283.15 K | 0.087
in ethyl acetate, 285.65 K | 0.0933
in ethyl acetate, 288.15 K | 0.0996
in ethyl acetate, 290.65 K | 0.106
in ethyl acetate, 293.15 K | 0.113
in ethyl acetate, 295.65 K | 0.12
in ethyl acetate, 298.15 K | 0.128
in ethyl acetate, 300.65 K | 0.136
in ethyl acetate, 303.15 K | 0.144
in ethyl acetate, 305.65 K | 0.153
in ethyl acetate, 308.15 K | 0.162
in ethyl acetate, 310.65 K | 0.172
in ethyl acetate, 313.15 K | 0.182
in isopropanol, 278.15 K | 0.0102
in isopropanol, 280.65 K | 0.0112
in isopropanol, 283.15 K | 0.0122
in isopropanol, 285.65 K | 0.0134
in isopropanol, 288.15 K | 0.0146
in isopropanol, 290.65 K | 0.0161
in isopropanol, 293.15 K | 0.0176
in isopropanol, 295.65 K | 0.0192
in isopropanol, 298.15 K | 0.0209
in isopropanol, 300.65 K | 0.0227
in isopropanol, 303.15 K | 0.0248
in isopropanol, 305.65 K | 0.0268
in isopropanol, 308.15 K | 0.0293
in isopropanol, 310.65 K | 0.0317
in isopropanol, 313.15 K | 0.0346
in methanol, 278.15 K | 0.00863
in methanol, 280.65 K | 0.00933
in methanol, 283.15 K | 0.0104
in methanol, 285.65 K | 0.0112
in methanol, 288.15 K | 0.0121
in methanol, 290.65 K | 0.0133
in methanol, 293.15 K | 0.0144
in methanol, 295.65 K | 0.0156
in methanol, 298.15 K | 0.0169
in methanol, 300.65 K | 0.0182
in methanol, 303.15 K | 0.0198
in methanol, 305.65 K | 0.0213
in methanol, 308.15 K | 0.023
in methanol, 313.15 K | 0.0268
in n-butanol, 278.15 K | 0.0126
in n-butanol, 280.65 K | 0.0138
in n-butanol, 283.15 K | 0.0152
in n-butanol, 285.65 K | 0.0166
in n-butanol, 288.15 K | 0.018
in n-butanol, 290.65 K | 0.0197
in n-butanol, 293.15 K | 0.0214
in n-butanol, 295.65 K | 0.0232
in n-butanol, 298.15 K | 0.0253
in n-butanol, 300.65 K | 0.0273
in n-butanol, 303.15 K | 0.0297
in n-butanol, 305.65 K | 0.0321
in n-butanol, 308.15 K | 0.0348
in n-butanol, 310.65 K | 0.0376
in n-butanol, 313.15 K | 0.0406
in n-propanol, 278.15 K | 0.0111
in n-propanol, 280.65 K | 0.012
in n-propanol, 283.15 K | 0.0132
in n-propanol, 285.65 K | 0.0143
in n-propanol, 288.15 K | 0.0157
in n-propanol, 290.65 K | 0.017
in n-propanol, 293.15 K | 0.0185
in n-propanol, 295.65 K | 0.0202
in n-propanol, 298.15 K | 0.0218
in n-propanol, 300.65 K | 0.0237
in n-propanol, 303.15 K | 0.0257
in n-propanol, 305.65 K | 0.0278
in n-propanol, 310.65 K | 0.0326
in n-propanol, 313.15 K | 0.0352
in tetrachloromethane, 278.15 K | 0.00242
in tetrachloromethane, 280.65 K | 0.00265
in tetrachloromethane, 283.15 K | 0.00297
in tetrachloromethane, 285.65 K | 0.00333
in tetrachloromethane, 288.15 K | 0.00371
in tetrachloromethane, 290.65 K | 0.00406
in tetrachloromethane, 293.15 K | 0.00452
in tetrachloromethane, 295.65 K | 0.00497
in tetrachloromethane, 298.15 K | 0.0055
in tetrachloromethane, 300.65 K | 0.00602
in tetrachloromethane, 303.15 K | 0.00662
in tetrachloromethane, 305.65 K | 0.00721
in tetrachloromethane, 308.15 K | 0.00797
in tetrachloromethane, 310.65 K | 0.00876
in tetrachloromethane, 313.15 K | 0.00963
in tetrachloromethane, 315.65 K | 0.0105
in tetrachloromethane, 318.15 K | 0.0117
in toluene, 278.15 K | 0.0118
in toluene, 280.65 K | 0.0131
in toluene, 283.15 K | 0.0146
in toluene, 285.65 K | 0.016
in toluene, 288.15 K | 0.0176
in toluene, 290.65 K | 0.0194
in toluene, 293.15 K | 0.0215
in toluene, 295.65 K | 0.0236
in toluene, 298.15 K | 0.0259
in toluene, 300.65 K | 0.0284
in toluene, 303.15 K | 0.0312
in toluene, 305.65 K | 0.0343
in toluene, 308.15 K | 0.0375
in toluene, 310.65 K | 0.0411
in toluene, 313.15 K | 0.045
